Where a name gives a salt, the structure may show the parent alone. Read-outs that look alike come from different tables or passages of the source. Values belong to the compound of their own block, whether it stands above or below them.
Tests used:
[1] = Metabolic stability in human liver microsomes; settings: for half-life at 0.5 μM: human, liver microsomes, pH 7.4
MES-SA/DX5 = test: SRB growth inhibition assay, P-gp over-expressing MES-SA/DX5 cells; format: cell-based; settings: for Resistance factor: ratio of IC50 MES-SA/DX5 to MES-SA
[2] = Metabolic stability in dog liver microsomes; format: in vitro ADME; settings: for half-life at 0.5 μM: dog, pH 7.4
PC-3 xenografts = tested on: PC-3 xenografts
Text: (§1) In vivo antitumor activity [tumor growth inhibition (% T/C), tumor growth delay (T-C value), and tumor cell kill (total log cell kill)].

[3] = Metabolic stability in mouse liver microsomes; format: in vitro ADME; settings: for half-life at 0.5 μM: mouse, liver microsomes
[4] = Metabolic stability in rat liver microsomes; format: in vitro ADME; settings: for half-life at 0.5 μM: rat, liver microsomes, pH 7.4
[5] = Pharmacokinetic study in ICR mice; settings: Mice, 15 mg/kg i.v.
[6] = mouse, in vivo, ip
[7] = tested on: A375 human melanoma xenograft; test: In vivo efficacy, A375 human melanoma xenograft in mice
Method: DTIC at 60 mg/kg was used as a positive control again.
PC-3 and A375 tumor xenograft studies.
as §1

[8] = Metabolic stability in monkey liver microsomes; format: in vitro ADME; settings: for half-life at 0.5 μM: monkey, pH 7.4
PC-3 cells = test: Apoptosis detection by ELISA (cytoplasmic DNA-histone complexes), PC-3 cells; format: cell-based, human; settings: PC-3 and A375 cells, 24 h
Text: The levels of DNA-histone complexes were used to represent cell apoptosis.
Apoptosis detection by ELISA. Quantification of the enrichment of mono- and oligonucleosomes in the cytoplasm was used to determine the ability of the compounds to induce apoptosis (cell death detection ELISA PLUS, Roche, Germany) following the manufacturer's instructions.

in vitro = settings: human, microsomes, pH 7.4
[9] = Metabolic stability in hamster liver microsomes; format: in vitro ADME; settings: pH 7.4, phase I pathway, read-out: T ½ (min), hamster liver microsomes
[10] = Metabolic stability in guinea pig liver microsomes; format: in vitro ADME; settings: pH 7.4, phase I pathway, read-out: T ½ (min), guinea pig liver microsomes
[11] = Metabolic stability in rabbit liver microsomes; format: in vitro ADME; settings: pH 7.4, phase I pathway, read-out: T ½ (min), rabbit liver microsomes
in vivo = settings: male, ICR, mouse, plasma, 5 mg/kg; for Vd / clearance: iv
WM-164 = test: SRB cytotoxicity assay, WM-164 human melanoma cells; format: cell-based; settings: read-out: IC50 ± SEM WM164 (converted)
PPC-1 = test: SRB cytotoxicity assay, PPC-1 prostate cancer cells; format: cell-based, human; settings: Homo sapiens, PPC-1
Text: (§2) Cells were stained with SRB solution.

A375 = test: SRB cytotoxicity assay, A375 human melanoma cells; format: cell-based; settings: Homo sapiens, A-375, 48 h, read-out: IC50 ± SEM A375
LNCaP = test: SRB cytotoxicity assay, LNCaP prostate cancer cells; format: cell-based, human; settings: Homo sapiens, LNCaP
Text: as §2

DU 145 = test: SRB cytotoxicity assay, DU 145 prostate cancer cells; format: cell-based; settings: Homo sapiens
Text: as §2

PC-3 = test: SRB cytotoxicity assay, PC-3 prostate cancer cells; format: cell-based, human; settings: Homo sapiens, PC-3
Text: as §2

B16-F1 = test: SRB cytotoxicity assay, B16-F1 mouse melanoma cells; format: cell-based; settings: read-out: IC50 ± SEM B16-F1 (converted)
B16-F1 melanoma tumors = test: In vivo efficacy, B16-F1 melanoma in C57/BL mice; parameters: species or system mouse; settings: 13 days, C57BL/6 mice
PC-3/TxR = test: cells; settings: Homo sapiens, PC3-TxR, read-out: inhibitory effects PC3/TXR
DU145/TXR = test: SRB growth inhibition, paclitaxel-resistant DU145/TXR cells; format: cell-based; settings: Homo sapiens, DU-145; Table 13A; read-out: inhibitory effects DU145/TXR
[12] = dog liver microsomes, Table 20, read-out: Half life in Dog liver microsome
[13] = pH 7.4, Table 20, read-out: Half life in Mouse liver microsome
[14] = Table 20, read-out: Half life in Rat liver microsome
[15] = monkey liver microsomes, Table 20, read-out: Half life in Monkey liver microsome
[16] = liver microsomes, phase I pathway, read-out: T ½ (min), dog liver microsomes
[17] = pH 7.4, phase I pathway, read-out: T ½ (min), mouse liver microsomes
[18] = phase I pathway, read-out: T ½ (min), rat liver microsomes
[19] = liver microsomes, phase I pathway, read-out: T ½ (min), monkey liver microsomes
[20] = Table 13A, read-out: inhibitory effects PPC1
[21] = Table 13A, read-out: inhibitory effects LNCaP
[22] = Table 13A, read-out: inhibitory effects DU145
[23] = Table 13A, read-out: inhibitory effects PC3

SMILES: COc1cc(C(=O)c2csc(-c3ccc(F)cc3)n2)cc(OC)c1OC [2k]
half life in human liver microsome ([1]; Table 20): 10 min
IC50 (MES-SA/DX5; Table 6, read-out: IC50 ± SEM MES-SA/Dx5): 19 nM
Half life in Dog liver microsome ([2]; Table 20): 16 min
% T/C (PC-3 xenografts; 5 mg/kg i.p.): 21%
% T/C (PC-3 xenografts; 15 mg/kg i.p.): 24%
% T/C (PC-3 xenografts; Prostate (PC-3) xenograft, 5 mg/kg i.p., 21 days): 21%
% T/C (PC-3 xenografts; Prostate (PC-3) xenograft, 15 mg/kg i.p., 21 days): 24%
mice that lost more than 15% body weight (PC-3 xenografts; mouse, in vivo): 2 out of 7
Half life in Mouse liver microsome ([3]; Table 20): 9 min
Half life in Rat liver microsome ([4]; Table 20): 32 min
AUC [5]: 22000 ng·h/mL
CL [5]: 112 mL/min/kg
Vss [5]: 6.6 L/kg
dose that did not cause greater than 10% loss of body weight [6]: ≤ 15 mg/kg
T-C (tumor growth delay) ([7]; Melanoma (A375) xenograft, 15 mg/kg i.p.): 11 days
Total log cell kill ([7]; Melanoma (A375) xenograft, 15 mg/kg i.p., doubling time 4.6 d): 0.7
Half life in Monkey liver microsome ([8]; Table 20): <5 min
concentration inducing apoptosis (PC-3 cells): 50 nM

SMILES: COc1cc(C(=O)c2csc(-c3ccc(O)cc3)n2)cc(OC)c1OC [2l, (2-(4-Hydroxyphenyl)thiazol-4-yl)(3,4,5-trimethoxyphenyl)methanone]
half-life at 0.5 μM [2, 12]: 30 min
half-life at 0.5 μM [3, 13]: 11 min
half-life at 0.5 μM [4, 14]: 49 min
half-life at 0.5 μM (in vitro): 20 min
half-life at 0.5 μM [8, 15]: 8 min

SMILES: COc1cc(-c2nccc3ccc(-c4ccc5[nH]ccc5c4)cc23)cc(OC)c1OC [6a]
half-life at 0.5 μM [1]: 32 min
Resistance factor (MES-SA/DX5): 1.5
half-life at 0.5 μM [2, 12]: 13 min
half-life at 0.5 μM [2, 16]: 13 min
half-life at 0.5 μM [9]: 6 min
half-life at 0.5 μM [3, 13]: 3.43 min
half-life at 0.5 μM [3, 17]: 3.4 min
half-life at 0.5 μM [4, 18]: 12 min
half-life at 0.5 μM [10]: 15 min
half-life at 0.5 μM [11]: 17 min
half-life at 0.5 μM [8, 19]: 16 min
half-life at 0.5 μM [8, 15]: 16 min
AUC (in vivo; ip): 983 ng·h/mL
Cmax (in vivo; ip): 678 ng/mL
bioavailability (in vivo; ip): 60%
Vd (in vivo): 2.3 L/kg
clearance (in vivo): 51 mL/min/kg
AUC (in vivo; po): 83.3 ng·h/mL
Cmax (in vivo; po): 6.7 ng/mL
bioavailability (in vivo; po): 5%

SMILES: c1cc2ccc(-c3ccc4[nH]ccc4c3)cc2c(-c2ccc3[nH]ccc3c2)n1 [6b, 1,7-Bis-(1H-indol-5-yl)-isoquinoline]
half-life at 0.5 μM [1]: 40 min
Resistance factor (MES-SA/DX5): 1.4
half-life at 0.5 μM [2, 12]: 30 min
half-life at 0.5 μM [2, 16]: 30 min
half-life at 0.5 μM [9]: 11 min
half-life at 0.5 μM [3, 13]: 10 min
half-life at 0.5 μM [3, 17]: 10 min
half-life at 0.5 μM [4, 18]: 9 min
half-life at 0.5 μM [10]: 15 min
half-life at 0.5 μM [11]: 16 min
half-life at 0.5 μM [8, 19]: 13 min
half-life at 0.5 μM [8, 15]: 13 min
AUC (in vivo; ip): 3630 ng·h/mL
Cmax (in vivo; ip): 1500 ng/mL
bioavailability (in vivo; ip): 60%
Vd (in vivo): 1.1 L/kg
clearance (in vivo): 14 mL/min/kg
AUC (in vivo; po): 117 ng·h/mL
Cmax (in vivo; po): 50 ng/mL
bioavailability (in vivo; po): 2.1%

half-life at 0.5 μM [1]: 47 min
half-life at 0.5 μM [2, 12]: 29 min
half-life at 0.5 μM [2, 16]: 29 min
half-life at 0.5 μM [9]: 20 min
half-life at 0.5 μM [3, 13]: 13 min
half-life at 0.5 μM [3, 17]: 13 min
half-life at 0.5 μM [4, 18]: 14 min
half-life at 0.5 μM [10]: 8 min
half-life at 0.5 μM [11]: 16 min
half-life at 0.5 μM [8, 19]: 9 min
half-life at 0.5 μM [8, 15]: 9 min
AUC (in vivo; ip): 917 ng·h/mL
Cmax (in vivo; ip): 1100 ng/mL
bioavailability (in vivo; ip): 33%
Vd (in vivo): 1.8 L/kg
clearance (in vivo): 30 mL/min/kg
AUC (in vivo; po): 66.7 ng·h/mL
Cmax (in vivo; po): 50 ng/mL
bioavailability (in vivo; po): 2.7%
SMILES: Fc1ccc(-c2nccc3ccc(-c4ccc5[nH]ccc5c4)cc23)cc1 [6c, 1-(4-Fluoro-phenyl)-7-(1H-indol-5-yl)-isoquinoline]

SMILES: O=C(c1cccc(F)c1)c1cn(S(=O)(=O)c2ccccc2)c(-c2ccccc2)n1 [11ag, (3-fluorophenyl)(2-phenyl-1-(phenylsulfonyl)-1H-imidazol-4-yl)methanone]
IC50 (WM-164; Homo sapiens, WM164, 48 h, Table 13, 48 h): > 10000 nM
IC50 (PPC-1; Table 13, 96 h, read-out: IC50 ± SEM PPC-1): > 10000 nM
IC50 (A375; Table 13, 48 h): > 10000 nM
IC50 (LNCaP; Table 13, 96 h, read-out: IC50 ± SEM LNCaP): > 10000 nM
IC50 (DU 145; Table 13, 96 h, read-out: IC50 ± SEM Du 145): > 10000 nM
IC50 (PC-3; Table 13, 96 h, read-out: IC50 ± SEM PC-3): > 10000 nM
IC50 (B16-F1; Mus musculus, B16-F1, 48 h, Table 13, 48 h): > 10000 nM

SMILES: COc1cc(C(=O)c2cn(C)c(-c3ccc(C)cc3)n2)cc(OC)c1OC [12dab, (1-methyl-2-(p-tolyl)-1H-imidazol-4-yl)(3,4,5-trimethoxyphenyl)methanone]
half-life at 0.5 μM [2, 12]: 46 min
half-life at 0.5 μM [3, 13]: < 5 min
half-life at 0.5 μM [4, 14]: 12 min
half-life at 0.5 μM (in vitro): 21 min

SMILES: Cc1ccc(-c2nc(C(=O)c3ccc(F)cc3)c[nH]2)cc1 [12db-HCl, (4-fluorophenyl)(2-(p-tolyl)-1H-imidazol-4-yl)methanone hydrochloride]
IC50 (WM-164; Table 12, 48 h, hydrochloride): 112 nM
IC50 (B16-F1; Table 12, 48 h, hydrochloride): 297 nM

SMILES: COc1cc(-c2nc(C(=O)c3ccc(F)cc3)c[nH]2)cc(OC)c1OC [12eb, (4-fluorophenyl)(2-(3,4,5-trimethoxyphenyl)-1H-imidazol-4-yl)methanone]
IC50 (WM-164; Homo sapiens, WM164, 48 h, Table 12, 48 h): > 10000 nM
IC50 (A375; Table 12, 48 h): > 10000 nM
IC50 (B16-F1; Mus musculus, B16-F1, 48 h, Table 12, 48 h): > 10000 nM

SMILES: O=C(c1ccc(F)cc1)c1c[nH]c(-c2ccc(Cl)cc2)n1 [12fb, (2-(4-chlorophenyl)-1H-imidazol-4-yl)(4-fluorophenyl)methanone]
half-life at 0.5 μM (in vitro): 37 min
tolerability ([7]; 25 mg/kg, SHO mice): well tolerated
tumor growth inhibition (TGI value) (B16-F1 melanoma tumors; 45 mg/kg): 82%

IC50 (PC-3/TxR): 25 nM
SMILES: COc1cc(C(=O)c2nc(-c3ccc(Cl)cc3)c[nH]2)cc(OC)c1OC [70c, (4-(4-chlorophenyl)-1H-imidazol-2-yl)(3,4,5-trimethoxyphenyl)methanone]
IC50 (PPC-1; [20]): 51 nM
IC50 (LNCaP; [21]): 22 nM
IC50 (DU 145; [22]): 125 nM
IC50 (PC-3; [23]): 64 nM

IC50 (PC-3/TxR): 46 nM
IC50 (DU145/TXR): 202 nM
SMILES: COc1cc(C(=O)c2nc(-c3ccc(C(F)(F)F)cc3)c[nH]2)cc(OC)c1OC [70e, (4-(4-(trifluoromethyl)phenyl)-1H-imidazol-2-yl)(3,4,5-trimethoxyphenyl)methanone]
IC50 (PPC-1; [20]): 75 nM
IC50 (LNCaP; [21]): 47 nM
IC50 (DU 145; [22]): 210 nM
IC50 (PC-3; [23]): 93 nM

IC50 (PC-3/TxR): 25 nM
IC50 (DU145/TXR): 111 nM
SMILES: COc1ccc(-c2c[nH]c(C(=O)c3cc(OC)c(OC)c(OC)c3)n2)cc1 [70g, (4-(4-methoxyphenyl)-1H-imidazol-2-yl)(3,4,5-trimethoxyphenyl)methanone]
IC50 (PPC-1; [20]): 54 nM
IC50 (DU 145; [22]): 210 nM
IC50 (PC-3; [23]): 61 nM

SMILES: CN(C)/N=N/c1[nH]cnc1C(N)=O [DTIC, reference compound]
tumor growth inhibition (TGI value) ([7]; 60 mg/kg, 31 days, SHO mice): 52%
tumor growth inhibition (TGI value) (B16-F1 melanoma tumors; 60 mg/kg): 51%

Reference: US12187720B2, “Compounds for treatment of cancer” (ONCTERNAL THERAPEUTICS, INC., priority 2010, dated 2025)
